# According to a melting point compilation (Tetko et al.; mined from patent text by program, amines drawn as free bases though some values may be those of a salt):
row,Structure (SMILES),melting point
1,O=C1Nc2ccc(Cl)cc2SC1c1ccc(Cl)cc1 (stereo unspecified),230 to 234 °C
2,COC(=O)c1nc2nn(-c3ccccc3)c(C)c2c(N)c1C(=O)OC,190 to 191 °C
3,CCOC(C)O[C@H]1C(=O)N[C@H]1C1CCCCC1 (stereo partly specified),87 to 89 °C
4,CC=CCn1c(C)c(C)c2cnnc(CCc3ccccc3)c21,98 to 106 °C
5,CS(=O)(=O)c1ccc(-c2cc(C(F)(F)F)nn2-c2ccc(C#N)cc2)cc1,140 to 142 °C
6,Cc1cccc(SCc2c(C(C)C)nc(C(C)C)c(CO)c2-c2ccc(F)cc2)c1,92 to 93 °C
7,COc1nsc(S(C)(=O)=O)c1C#N,167 to 168 °C
8,O=C(C(=Cc1cccc(C(F)(F)F)c1)C(=O)C1CC1)C1CC1,56 to 58 °C
9,COC(=O)c1cc2c(Sc3ccc(C)cc3)cncc2s1,116 to 119 °C
10,C=CCC1(CC=C)CCC(=Cc2ccc(F)cc2)C1(O)Cn1cncn1 (stereo unspecified),112 °C
11,[N-]=[N+]=NCCc1cccc2[nH]cc(S(=O)(=O)c3cccc(F)c3)c12,136 to 138 °C
12,O=C(NC1CN(Cc2ccccc2)CCN(Cc2ccccc2)C1)c1n[nH]c2ccccc12,115 to 116 °C
13,CC(=O)C12OC1CC1C3CC=C4CC(O)CCC4(C)C3CCC12C (stereo unspecified),194 to 196 °C
14,CCCCCCC[C@H]1CC[C@H](CCc2ccc(-c3ccc(Br)cc3F)cc2)CC1,54 °C
15,CCN(C(=O)C(C)Cl)c1cn(-c2cccnc2)nc1Cl (stereo unspecified),94 to 105 °C
16,Brc1ccc2c(c1)N=C(N1CCN(Cc3ccccc3)CC1)c1cccc3c1N2CC3,129 to 131 °C
17,CCOP(=O)(CC(=O)Nc1cc2c(Nc3ccc(F)c(Cl)c3)ncnc2cc1OCC1CC1)OCC,185 to 187 °C
18,COC(=O)c1c(-c2ccc(F)cc2)c2c3ccccc3ccn2c1C(C)C,170 to 173 °C
19,O=[N+]([O-])c1ccccc1OC1SCC(O)C(O)C1O (stereo unspecified),137 to 140 °C
20,CN(C)c1ncc(Br)cn1,81 to 82 °C
21,OC1(CNc2c(Br)cnc3ccccc23)CCCCC1,130 to 132 °C
22,CNCc1nc(CSCCNC(=C[N+](=O)[O-])NC)cs1,105 to 107 °C
23,O=C(O)CNC1C2CC3CC(C2)CC1C3 (stereo unspecified),255 °C
24,Cc1cc(F)ccc1-c1cccc(C(=O)Nc2ccc(OCCN3CCOCC3)c3ccccc23)c1,95 to 97 °C
25,CC1(C)OC(=O)N(c2ccc(F)c(F)c2)c2ccccc21,207 to 208 °C
26,O=c1[nH]c2ncc(-c3ccc(-c4nnc[nH]4)cc3)nc2n1CCN1CCOCC1,295 to 297 °C

row,Structure (SMILES),melting point
1,CC(C)C[C@H](NC(=O)OCC1CCCCC1)C(=O)N[C@@H](C(C)C)[C@H](O)c1c(-c2ccccc2)c1=O,148 to 149 °C
2,CN(C)CCN(C)c1ccc(Nc2cc(Br)cn(C)c2=O)nc1,161 to 163 °C
3,CSc1c(C(=O)NN=Cc2nccs2)[nH]c2ccccc12,216 to 222 °C
4,"CCCCOc1ccc(C#CC2(O)CN3CCC2CC3)cc1 (single isomer, unassigned; (+))",115 to 116 °C
5,O=C(Cc1c(Cl)c(F)nc(F)c1Cl)OCc1ccccc1,98 to 101 °C
6,COc1cnccc1C(C)=O,36 to 37 °C
7,CN1CCC=C(c2cc3ccccc3c(=O)[nH]2)C1,214 to 216 °C
8,COCc1cc(-c2ccccc2N)[nH]n1,74 to 78 °C
9,Cc1[nH]cc2c(=O)n(-c3ccc(Cl)cc3)nc-2c1-c1cccc(C(=O)N2CCN(C)CC2)c1,318 to 322 °C
10,CCCc1c(C(=O)C(C)C)c2ccc(C(=O)O)cc2n1Cc1ccccc1C#N,214 to 215 °C
11,CCOP(=O)(COc1ccc2c(c1)[nH]c1ccccc12)OCC,159 °C
12,COc1ccc(C(=O)Nc2ccc(C(C)(C)CN3CCOC3=O)cc2)cc1OC,190 to 191 °C
13,C=CCN1CCc2c(sc(N)c2C(=O)c2ccc(Br)cc2)C1,116 to 118 °C
14,CCOC(=NC(=O)c1cc(Cl)nc(Cl)c1)N1Cc2ccccc2-c2ccccc2C1,151 to 152 °C
15,Cc1oc(-c2ccccc2)nc1CCOc1ccc(CC(C)(C(=O)O)c2ccccc2)cc1 (stereo unspecified),178 to 179 °C
16,CCCn1c(COCC)nc2c(N)nc3ccc(OCCNC(=O)C4CCCO4)cc3c21 (stereo unspecified),202 to 204 °C
17,ClCC1c2ccccc2Oc2ccccc21,104 to 106 °C
18,COc1cc2c(cc1OC)N(c1ccc([N+](=O)[O-])cc1[N+](=O)[O-])CC2,219 °C
19,O=c1ccn(CCO)c(C(O)c2ccc(Cl)cc2)c1O (stereo unspecified),184 to 186 °C
20,CNc1nc2ccc(CCc3nc4cc(C)ccn4c3C)cc2o1,203 to 205 °C
21,CCC(Oc1c(Br)cccc1Br)C(=O)OC1CC(O)C=C2C=CC(C)C(CCC3CC(O)CC(=O)O3)C21 (mixture of isomers),114 to 116 °C
22,CCCc1sc(C#N)c2c1C(=O)CC(C)(C)C2,38 to 40 °C
23,Cc1ccc(Oc2cccc(C3C4=C(CC(C)(C)CC4=O)NC4=C3C(=O)CC(C)(C)C4)c2)cc1,202 to 203 °C
24,Cn1nnnc1-c1cnc2ccc(F)cc2c1O,> 300 °C
25,COc1ccc2c(c1)CCC([C@@H]1CC[C@H](O)[C@@]1(C)CCO)C2 (stereo partly specified),151 to 153 °C
26,CCCCNC(=O)[C@H](C)C[C@H](O)[C@H](CC1CCCCC1)NC(=O)[C@H](Cc1cscn1)NC(=O)[C@@H](CC(=O)N1CCN(C)CC1)Cc1ccc(OC)cc1,125 to 126 °C

row,Structure (SMILES),melting point
1,CC(C)NC(=O)c1cnc(N2CCC(N3C(=O)COc4ccccc43)CC2)c(Cl)c1,85 to 88 °C
2,CCOC(=O)N1CCC(=C2c3sccc3C=Cn3ccnc32)CC1,176 °C
3,O=Cc1cc([N+](=O)[O-])ccc1Oc1ccc(F)cc1,125 to 126 °C
4,Cc1nccn2c(-c3ccnc(NCC(C)(C)CO)n3)c(-c3ccc(F)cc3F)nc12,174 °C
5,CC1(C)CC(O)CC(C)(C)N1CC(O)c1ccccc1 (stereo unspecified),123 °C
6,CNc1cc(Cc2cnc(N)nc2N)cc(N(C)C)c1OC,183 °C
7,CCc1ccc2sc3cc(-c4nnn[nH]4)ccc3c(=O)c2c1,247 °C
8,Cc1ccc(C#N)c(C)c1COC(=O)[C@H]1[C@@H](C=C(Cl)C(F)(F)F)C1(C)C (relative stereo),98 °C
9,Cc1cc(-c2nc3cccnn3c2-c2ccnc(NC(=O)c3cncc(Cl)c3)c2)ccc1F,252 to 254 °C
10,O=C(NS(=O)(=O)c1ccccc1)c1ccc(I)cc1,192 to 193 °C
11,CC(C#N)=Cc1ccc(C=O)cc1,63 to 64 °C
12,O=C1N(c2cc(Cl)cc(Cl)c2)C(=O)C2(Cc3ccc(Br)cc3)CCCN12 (stereo unspecified),69.4 °C
13,CN1CCN=C1N1CCNCC1,115 to 125 °C
14,COc1ccc2c(c1)C1(CO2)C(=O)N(C)c2ccccc21 (stereo unspecified),159 to 161 °C
15,O=C(O)c1ccccc1-c1ccc(-c2ccc(C(F)(F)F)cc2)o1,182 to 183 °C
16,COc1nc(C)nc(NC(=O)NS(=O)(=O)c2ccccc2C=CCC#N)n1,142 to 143 °C
17,CCCOc1nc2ccccc2c2c1CNC2=O,170 to 171 °C
18,ClCC1CN(Cc2ccccc2)CCN1Cc1ccccc1 (stereo unspecified),54 to 56 °C
19,CCNC(=O)/C=C/CSc1nc(N)cc(Cl)n1,160 to 161 °C
20,O=C(NCN1CCCCCCCC1=O)NCN1CCCC1=O,149 to 150 °C
21,C[C@@H]1N=C(c2ccccc2)c2cc(N)ccc2N(C)C1=O,219 to 221 °C
22,CC(C)(C)OC(=O)[C@@H]1CCC(=S)N1Cc1ccccc1,72 to 78 °C
23,CCOC(=O)c1cnn(-c2ccc(N)cc2)c1C(F)(F)F,102 to 103 °C
24,CC(C)(C)OC(=O)[C@H]1C[C@H](C(=O)Nc2ccccc2)[C@@H](c2ccccc2)N1C(=O)CNC(=O)Nc1cccc(C(=O)O)c1 (racemic),160 °C
25,Cc1ccc2c(cc(CCC(=O)O)n2S(=O)(=O)c2ccccc2)n1,88 to 92 °C
26,CN(C)C=Nc1nc(OCOC(=O)C(C)(C)C)ncc1F,86 to 88 °C

row,Structure (SMILES),melting point
1,CCCCCCCCCCCCc1c2c(=O)c3cc(Br)ccc3c2c(CCCCCCCCCCCC)c2c(=O)c3cc(Br)ccc3c12,122 to 123 °C
2,CCCCn1c(Nc2cc(Cl)cc(C(F)(F)F)c2)nc(C(F)(F)F)cc1=O,157 to 158 °C
3,O=C(NC1CCN(CCc2[nH]c(=O)[nH]c2-c2ccc(F)cc2)CC1)c1ccccc1,218 to 220 °C
4,C#CCNc1nc(NCC=C)nc2c(C)csc12,95 to 96 °C
5,COc1cccc([C@H]2O[C@H](CC(=O)Nc3cc(CCC(=O)O)ccc3OCCCc3ccccc3)C(=O)N(CC(C)(C)CO)c3ccc(Cl)cc32)c1OC,162 to 165 °C
6,O=C(c1ccc2nonc2c1)N(CC(F)(F)F)C1CCOCC1,134 to 135 °C
7,N=C(NC=Cc1ccc(N)cc1)c1ccccc1,166 to 168 °C
8,NCc1ccc2c(c1)ncn2-c1cccc(-c2ccccn2)c1,224 to 229 °C
9,CN(C)C(=O)N1Cc2c(-c3noc(C4CC4)n3)ncn2-c2cccc(F)c21,194 to 195 °C
10,CC(=O)N[C@@H](Cc1c[nH]c2ccc(O)cc12)C(=O)O,209 °C
11,Nc1cccc(-c2ccc(CCN3CCN(C(=O)Nc4ccccc4)CC3)cc2)n1,60 °C
12,O=C(O)c1cccc(-n2c(-c3ccccc3)cc3c2-c2ccccc2CC3)c1,225 to 228 °C
13,COc1cccc(-n2c3c(c(=O)c4cccnc42)CC(CBr)O3)c1 (stereo unspecified),196 to 198 °C
14,CNCc1nnc(-c2ccc3occ(-c4cccc(OC(F)(F)F)c4)c3c2)o1,65 to 66 °C
15,O=[N+]([O-])c1ccc(C2CCN(c3ccncc3)CC2)cc1,173 to 174 °C
16,COc1cccc(S(=O)(=O)N2CCc3cc(O)c(OC)cc3C2)c1,168 to 170 °C
17,CC(=O)N1[C@@H](c2ccc(F)cc2)SC(C)(C)[C@@H]1C(=O)O,144 to 146 °C
18,O=C1OC(Cl)(Cl)c2c(Cl)c(Cl)c(Cl)c(Cl)c21,136 to 138 °C
19,c1coc2cc3ccnc3cc2c1,97 °C
20,O=[N+]([O-])c1cccc(/C=C/c2nc(C3CC3)cs2)c1,90 to 95 °C
21,CNC(=O)COC(=O)N1CCN(CCOc2ccc(Cl)cc2)CC1,159 to 161 °C
22,CC1CCC2(C)C(CCC3C4CCC(=O)C4(C)CCC32)C1 (stereo unspecified),107 to 108 °C
23,O=S(=O)(Nc1cc(I)c(O)c2ccccc12)c1cccs1,134 to 136 °C
